For one assay, the target named is T1, ENL-AFF4 interaction (Homo sapiens, UniProt Q03111).
T1 construct: ENL AHD domain (489-559) was synthesized (by Genscript) and inserted into the pMAL c5X expression plasmid; made in house; host or cells: E. coli BL21(DE3)
Description: Alpha assay, ENL-AFF4 interaction. The conditions noted are these: read-out: IC50, inhibition of ENL-AFF4 interaction. The format is binding. As for the experimental part:
ENL is also a major MLL fusion partner (~10%). The AHD domains of human ENL and AF9 share a high homology with 82% identity and 89% similarity (Figure S1A). […] Our attempts to develop an Alpha assay for ENL-DOT1L failed. […] Compound 1's activity against ENL-DOT1L was therefore not determined.
Alpha assays. Alpha assays were developed using Perkin-Elmer AlphaLisa anti-MBP kit, which contains streptavidin donor beads and anti-MBP acceptor beads. The assay was performed using a MBP-protein (5 nM), a biotinylated peptide (40 nM), and increasing concentrations of a compound in 25 µL buffer (PBS with 0.5 % BSA, pH 7.5) in 384-well plates according to the manufacturer's protocol and measured with a Tecan SPARK microplate reader. Data were imported into Prism (version 5.0), and IC50 values from 3 independent experiments with standard deviation were obtained by using a standard dose-response curve fitting.

For assay [1], the target named is T2, AF9 AHD bound to DOT1L-coated beads (Homo sapiens, UniProt P42568).
T2 construct: cDNA for human AF9 AHD domain (475-568) and ENL AHD domain (489-559) was synthesized; made in house; host or cells: E. coli BL21(DE3)
T2 sequence (P42568 475-568): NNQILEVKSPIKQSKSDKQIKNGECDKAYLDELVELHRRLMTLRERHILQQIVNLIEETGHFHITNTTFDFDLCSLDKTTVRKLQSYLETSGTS
The assay can be described thus: Western blot based pull-down assay. Conditions: increasing concentrations. In kind it is binding. As for the experimental part:
A non-optical pull-down assay was used to further validate compound 1. DOT1L-coated beads were incubated with AF9 AHD in the presence of increasing concentrations of 1.
Western blot based pull-down assay. Biotinylated DOT1L peptide (0.25 mg/mL) was incubated with streptavidin agarose beads in PBS containing 0.1% Triton X-100 (400 µL) for 3h to yield, after washing, DOT1L-coated beads. MBP-AF9 AHD (0.2 µM, 40 µL) was pre-incubated with a compound for 30 min before adding to the beads. After 6 hours incubation at 4 °C, the beads were collected, thoroughly washed, and subjected to SDS-PAGE and analyzed by Western blot using an MBP Mouse mAb (#2396, Cell signaling).

The next assay has as its system HL60 cells. Description: Antiproliferation assay (XTT). In kind it is cell-based. Conditions: Homo sapiens, HL-60, 168 h, 7-day incubation, read-out: Cytotoxicity EC50. As for the experimental part:
(§1) Antiproliferation assay. Proliferation inhibition assays for suspension blood cancer cells were performed using an XTT assay kit (Roche). Proliferation inhibition assays for solid tumor cell lines MCF-7, MDA-MB-231, Panc1, Panc28 were performed using an MTT assay (Sigma). The antiproliferation EC50 values were determined using Prism 5 and the reported results were the mean values of at least three independent experiments. The incubation time for compound 1 was 7 days and that for EPZ4777 was 14 days.

Another assay has as its system Jurkat cells. Description: Antiproliferation assay (XTT). The format is cell-based. Conditions: Homo sapiens, 168 h, 7-day incubation, read-out: Cytotoxicity EC50. Here is the method:
as §1

The next assay relates to Kasumi-1 cells. The assay can be described thus: Antiproliferation assay (XTT). The format is cell-based. Conditions: Homo sapiens, 168 h, 7-day incubation, read-out: Cytotoxicity EC50. Here is the method:
as §1

In another assay the test system is MV4;11 cells. Description: Antiproliferation assay (XTT). In kind it is cell-based. The conditions noted are these: Homo sapiens, 168 h, 7-day incubation, read-out: Cytotoxicity EC50. Here is the method: as §1
The subject of another assay is Molm-13 cells. The assay can be described thus: Antiproliferation assay (XTT). The format is cell-based. Here is the method:
as §1

Another assay relates to RPMI-8226 cells. The assay can be described thus: Antiproliferation assay (XTT). The format is cell-based. Conditions: Homo sapiens, 168 h, 7-day incubation, read-out: Cytotoxicity EC50. Here is the method:
as §1

The subject of another assay is THP-1 cells. The assay can be described thus: Antiproliferation assay (XTT). The format is cell-based. The conditions noted are these: Homo sapiens, 168 h, 7-day incubation, read-out: Cytotoxicity EC50. Here is the method:
as §1

For the next assay, the system named is U266 cells. Description: Antiproliferation assay (XTT). Conditions: Homo sapiens, U-266, 168 h, 7-day incubation, read-out: Cytotoxicity EC50. The format is cell-based. As for the experimental part: as §1
Another assay concerns cancer cells. Description: Antiproliferation assays, cancer cell panel. The format is cell-based. Here is the method:
The differential antiproliferation activities of compound 1 is consistent with its ability to suppress DOT1L/H3K79 methylation and SEC regulated gene expression, which are critical to MLL-r leukemia and Myc-driven blood cancer, but largely dispensable to other solid tumor cells.
as §1

The subject of assay [2] is nuclear protein levels in Molm-13 cells. The assay can be described thus: Western blot of nuclear proteins. The format is cell-based. Conditions: 3 days. As for the experimental part: Next, we investigated how compound 1 affects these transcription cofactors in the nucleus, where they regulate gene expression. […] DOT1L inhibitor EPZ4777 [25] reduced the methylation levels of H3K79, but not other proteins (Figure 3B). […] In this regard, despite lack of activity against DOT1L, compound 1 can mimic EPZ4777 to reduce H3K79 methylation.
(§2) Western blot. 3x10^6 cells/well were treated with increasing concentrations of a compound for 3 days and nuclear proteins extracted with the EpiQuik Nuclear Extraction Kit (Epigentek) according to the manufacturer's protocol. Equal amounts of proteins were separated on SDS-PAGE and transferred to PVDF membranes. The blots were probed with primary antibodies, followed by anti-rabbit or anti-mouse IgG (Thermo Scientific) secondary antibodies. The primary antibodies used in this research were MBP Mouse mAb (#2396, Cell signaling), DOT1L Rabbit mAb (#77087, Cell signaling), MLL-N Rabbit mAb (#14689, Cell signaling), ENL Rabbit mAb (#14893, Cell signaling), Di-Methyl-Histone H3K79 Rabbit mAb (#5427, Cell signaling), Mono-Methyl-Histone H3K79 Rabbit mAb (#9398, Cell signaling), Histone H3 Rabbit mAb (#4499, Cell signaling), AF4 Rabbit pAb (#NBP1-28705, Novusbio) and AFF4 Rabbit pAb (#ab103586, Abcam).

Assay [3] concerns nuclear protein levels in MV4;11 cells. Description: Western blot of nuclear proteins. The format is cell-based. Here is the method: as §2
Another assay concerns MLL-r leukemia cells. The assay can be described thus: Cytospin/Wright-Giemsa staining. In kind it is cell-based. Conditions: 5 μM for 5 days. As for the experimental part: Cytospin/Wrigth-Giemsa staining. The MV4;11 and Molm-13 cells were plated in 6-well plates (2.5 mL/well) at an initial concentration of 10^5 cells/mL and treated with a compound or DMSO at 37 °C in a 5% CO2 incubator for 5 days. Cytospins were performed to smear cells (100 µL, 10^6 cells/mL) on slide. After air dry, the slides were Wright's-Giemsa stained and air-dried for over 30 mins before examination.

Where two headings read alike, the source gives them in different places.

T1 sequence (Q03111 489-559): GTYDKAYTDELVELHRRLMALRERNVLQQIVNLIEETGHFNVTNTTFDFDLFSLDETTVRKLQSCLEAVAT

Take `CC(C)(C)c1ccc(-n2cc(C(=O)NC3CCNCC3)nc2-c2ccccc2)cc1` [Compound 1]: the IC50 at ENL-AFF4 interaction was determined as 3.3 ± 0.3 µM. Moreover, the “Beads-bound AF9 AHD in pull-down (Western blot)” value in [1] is listed as “reduced beads-bound AF9 AHD with a similar IC50”. For the same compound, the EC50 with HL60 cells amounted to 7.3 ± 0.1 µM; in the assay on Jurkat cells, 9.7 ± 0.3 µM; in the assay with Kasumi-1 cells, 8.9 ± 0.3 µM; in the assay with MV4;11 cells, 4.7 ± 0.4 µM; in the assay with Molm-13 cells (Homo sapiens, 168 h, 7-day incubation, read-out: Cytotoxicity EC50) it was 4.9 ± 0.1 µM; in the assay on RPMI-8226 cells it was 3.3 ± 0.1 µM. The EC50 with THP-1 cells was 11.4 ± 0.6 µM; with U266 cells it was 7.9 ± 0.4 µM; in the assay with cancer cells (168 h, MLL-r leukemia (MV4;11, Molm-13, THP-1) and Myc-driven blood cancer cells, 7 days, read-out: EC50 against proliferation (range)), 3 to 11 µM; in the assay on cancer cells (MLL-r leukemia cells Molm-13, MV4;11 and THP-1, read-out: EC50s against proliferation (range)), 4.7 to 11 µM; in the assay on cancer cells (Myc-driven blood cancer cells HL60, Kasumi-1, Jurkat, RPMI8226, U266, read-out: EC50s against proliferation (range)) it was 3.3 to 9.7 µM. For the same compound, in the assay on Molm-13 cells (10 μM, Day-2 or 3), the “Inhibition of cell proliferation” value is listed as “did not significantly inhibit”. Moreover, the inhibition at 10 µM in the assay on Molm-13 cells (Homo sapiens, 10 μM, Day-5, read-out: Inhibition of cell proliferation) is more than 90%. The “Antiproliferative activity against solid tumor cells” value in the assay on cancer cells (MCF-7, MDA-MB-231 and two pancreatic cancer cells) is “reduced activity”. Besides, the “Nuclear levels of DOT1L, H3K79me1 and me2, ENL and AFF4” value in [2] is “reduced the nuclear levels of DOT1L, H3K79me1 and me2, ENL and AFF4”. Further, in assay [2], the “Nuclear levels of MLL-AF9” value is on record as “unaffected”. For the same compound, the “Nuclear level of AFF4” value in [3] (10 μM) is “did not cause significantly decreased AFF4”. The “Nuclear protein levels of H3K79me1 and me2 and ENL” value in assay [3] (3 days) is “reduced the nuclear protein levels of H3K79me1 and me2 and ENL”. The “Cell phenotype by Giemsa staining” value in the assay on MLL-r leukemia cells is “more differentiated phenotype with reduced nucleus”.

For the origin of these results see article PMC8344022, “Small-molecule inhibitor of AF9/ENL-DOT1L/AF4/AFF4 interactions suppresses malignant gene expression and tumor growth” (Theranostics, 2021).
